Assays:
[1] = target: T1, Recombinant human LTC4 synthase (Homo sapiens, UniProt Q16873); assay: LTC4 synthase in vitro assay (HPLC method); format: biochemical; settings: inhibition of LTC4 synthase
T1 construct: made in house; host or cells: Pichia pastoris
T1 sequence (Q16873 1-150): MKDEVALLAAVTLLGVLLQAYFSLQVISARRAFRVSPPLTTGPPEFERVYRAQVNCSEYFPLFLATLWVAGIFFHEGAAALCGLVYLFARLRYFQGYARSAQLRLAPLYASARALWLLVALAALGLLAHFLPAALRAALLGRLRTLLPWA
Method: In the assay, LTC4 synthase catalyses the reaction where the substrate LTA4 methyl ester is converted to the corresponding LTC4 methyl ester. Recombinant human LTC4 synthase is expressed in Piccia pastoralis and the purified enzyme is dissolved in 25 mM Tris-buffer pH 7.8 and stored at −80° C. The assay is performed in phosphate buffered saline (PBS) pH 7.4, supplemented with 5 mM glutathione (GSH). The reaction is terminated by addition of acetonitrile/MeOH/acetic acid (50/50/1). The assay is performed at rt in 96-well plates. Analysis of the formed LTC4 methyl ester is performed with reversed phase HPLC (Waters 2795 utilizing an Onyx Monolithic C18 column). The mobile phase consists of acetonitrile/MeOH/H2O (32.5/30/37.5) with 1% acetic acid pH adjusted with NH3 to pH 5.6, and absorbance measured at 280 nm with a Waters 2487 UV-detector.
The following is added chronologically to each well: • 1. 50 μl assay buffer, PBS with 5 mM GSH. • 2. 0.5 μl inhibitor in DMSO (final conc. 1 nM-10 μM). • 3. 2 μl LTC4 synthase in PBS. The total protein concentration in this solution is 0.025 mg/ml. Incubation of the plate at room temperature for 10 minutes. • 4. 1-1.5 μl LTA4 methyl ester (final conc. 10 μM). Incubation of the plate at rt for 1 min. • 5. 50 μl stop solution.
80 μl of the incubation mixture is analysed with HPLC.

[2] = target: T1, Recombinant human LTC4 synthase; assay: LTC4 synthase in vitro assay (HTRF detection of LTC4); format: biochemical; settings: HTRF method
Method in brief: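 Pichia-expressed recombinant human LTC4 synthase at 0.5 μg/ml total protein in PBS pH 7.4 with 5 mM GSH, preincubated 10 min at RT with inhibitor (10 μM final). LTA4 (2.5 μM final) was then added for 5 min at RT. LTC4 formed was read by HTRF.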

[3] = total concentration of title compound in the assay 10 μM

SMILES	IC50 [1] [µM]	inhibition at 10 µM [2, 3] [%]	other results
O=C(O)c1cc(Oc2ccc(Nc3ccc(F)cc3)c(C(=O)O)c2)ccc1Nc1ccc(F)cc1 [1:2, 3,3′-oxybis[6-(4-fluorophenyl-amino)benzoic acid]]	0.845	97	–
O=C(Nc1ccc(Sc2ccc(NC(=O)Nc3ccc(C(F)(F)F)cc3)c(C(=O)O)c2)cc1)Nc1ccc(C(F)(F)F)cc1 [14:6, 2-[3-(4-trifluoromethyl-phenyl)ureido]-5-{4-[3-(4-trifluoromethylphenyl)-ureido]phenylsulfanyl}-benzoic acid]	0.449	–	inhibition at 3 µM ([2]; compound concentration 3 μM): 80%
CCCCOc1ccc(S(=O)(=O)Nc2ccc(Oc3cccc(S(=O)(=O)Nc4ccc(Cl)cc4)c3)cc2C(=O)O)cc1 [19:1, 2-(4-Butoxy-benzenesulfonylamino)-5-[3-(4-chloro-phenylsufamoyl)-phenoxy]-benzoic acid]	1.16	100	–
CCCCOc1ccc(S(=O)(=O)Nc2ccc(Oc3cccc(Oc4ccc(F)c(F)c4)c3)cc2C(=O)O)cc1 [28:1]	0.629	98	–
CC(C)(C)c1ccc(C(=O)Nc2cccc(Oc3ccc(NS(=O)(=O)c4ccc(C(C)(C)C)cc4)c(C(=O)O)c3)c2)cc1 [29:1]	0.802	97	–
CCCCOc1ccc(S(=O)(=O)Nc2ccc(Oc3ccc(NC(=O)c4ccccc4)cc3)cc2CCC(=O)O)cc1 [Example 22:2, 3-[5-(4-Benzoylaminophenoxy)-2-(4-butoxybenzenesulfonylamino)-phenyl]propionic acid]	–	99	–
CC(C)Oc1ccc(C(=O)Nc2ccc(Oc3ccc(NC(=O)c4ccccc4)cc3)cc2/C=C/C(=O)O)cc1 [Example 22:3, (E)-3-[5-(4-Benzoylaminophenoxy)-2-(4-isopropoxy-benzoylamino)-phenyl]acrylic acid]	5.11	72	–
CCCCOc1ccc(S(=O)(=O)Nc2ccc(Oc3ccc(NC(=O)c4ccc(OC(C)C)cc4)c(C(=O)O)c3)cc2/C=C/C(=O)O)cc1 [Example 22:4, 5-[4-(4-butoxybenzenesulfonyl-amino)-3-((E)-2-carboxyvinyl)-phenoxy]-2-(4-isopropoxy-benzoylamino)benzoic acid]	–	100	–
CCCCN(c1ccc(F)c(F)c1)c1ccc(Oc2ccc(Nc3ccc(F)c(F)c3)c(C(=O)O)c2)cc1C(=O)O [Example 24:3, 2-[butyl-(3,4-difluorophenyl)amino]-5-[3-carboxy-4-(3,4-difluorophenyl-amino)phenoxy]benzoic acid]	–	97	–
O=C(O)c1cc(Oc2ccc(S(=O)(=O)Nc3ccc(Cl)cc3)cc2)ccc1Nc1ccc(F)c(F)c1 [Example 25:7, 5-[4-(4-Chlorophenylsulfamoyl)-phenoxy]-2-(3,4-difluorophenyl-amino)benzoic acid]	–	100	–
O=C(Nc1ccc(Oc2cccc(Oc3ccc(F)c(F)c3)c2)cc1C(=O)O)c1ccc(OC2CCCC2)cc1 [Example 28:2, 2-(4-Cyclopentyloxybenzoylamino)-5-[3-(3,4-difluorophenoxy)phenoxy]benzoic acid]	–	94	–
O=C(O)c1cc(Oc2cccc(Oc3ccc(F)c(F)c3)c2)ccc1Nc1ccc(F)c(F)c1 [Example 28:3, 5-[3-(3,4-Difluoro-phenoxy)-phenoxy]-2-(3,4-difluoro-phenylamino)-benzoic acid]	–	96	–
O=C(O)c1cc(Oc2ccc(NS(=O)(=O)c3ccc(OC(F)(F)F)cc3)cc2)ccc1NS(=O)(=O)c1ccc(OC(F)(F)F)cc1 [Example 30:3, 2-(4-Trifluoromethoxybenzenesulfonylamino)-5-[4-(4-trifluoromethoxybenzene-sulfonylamino)phenoxy]benzoic acid]	–	100	–
CCCCOc1ccc(S(=O)(=O)Nc2ccc(Oc3ccc(Nc4ccc(F)c(F)c4)cc3)cc2-c2nnn[nH]2)cc1 [Example 32:3, 4-Butoxy-N-[4-[4-(3,4-difluorophenyamino)phenoxy]-2-(tetrazol-5-yl)phenyl]-benzenesulfonamide]	–	–	% inh. [2, 3]: 98%
O=C(O)c1cc(Oc2ccc(Nc3ccc(F)c(F)c3)cn2)ccc1Nc1ccc(F)c(F)c1 [Example 33:1, 2-(3,4-Difluorophenylamino)-5-[5-(3,4-difluorophenylamino)pyridin-2-yloxy]-benzoic acid]	–	97	–
Cc1c(Cl)cccc1S(=O)(=O)Nc1ccc(Oc2ccc(Nc3ccc(F)c(F)c3)c(C(=O)O)c2)cn1 [Example 33:2, 5-(6-(3-Chloro-2-methylphenylsulfonamido)pyridin-3-yloxy)-2-(3,4-difluorophenylamino)benzoic acid]	–	99	–
O=C(Nc1ccc(Sc2ccc(NC(=O)c3ccc(Cl)cc3Cl)c(C(=O)O)c2)cc1)c1ccc(C(F)(F)F)cc1 [Example 35:1, 2-(2,4-Dichlorobenzoylamino)-5-[4-(4-trifluoromethylbenzoylamino)phenyl-sulfanyl]benzoic acid]	–	99	–
O=C(Nc1ccc(Sc2ccc(NS(=O)(=O)c3ccc(Cl)cc3F)c(C(=O)O)c2)cc1)c1ccc(C(F)(F)F)cc1 [Example 35:2, 2-(4-Chloro-2-fluoro-benzenesulfonylamino)-5-[4-(4-trifluoromethylbenzoylamino)-phenylsulfanyl]benzoic acid]	–	100	–
